What all share (experiment): NCI tumour cell line growth inhibition, 48 h
In assay [1] the test system is NCI-H522 lung.
The subject of assay [2] is K-562 leukemia.
For assay [3], the system named is SW-620 colon.
Assay [4] has as its system UO-31 renal.
In assay [5] the test system is RPMI-8226 leukemia.
The test system of assay [6] is HCC-2998 colon.
Assay [7] deals with SK-MEL-28 melanoma.
Assay [8] relates to NCI-H23 lung.
The test system of assay [9] is RXF 393 renal.
Assay [10] deals with NCI-H460 lung.

Each structure is given as a SMILES string.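 In this assay, cells in 96-well plates receive the compound at five concentrations for 48 hours. Endpoints are linearly interpolated between the surrounding concentrations. Abbreviation: GI50, concentration required for 50% inhibition of growth. Definition used: TGI = concentration required for complete inhibition of growth.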 A value given as a limit tells only on which side of the number the result lay.

Turning to `COc1ccc(-c2nn(-c3cccc(NC(=O)Nc4cc(C(F)(F)F)cc(C(F)(F)F)c4)c3)cc2-c2ccncc2)cc1Cl`, the GI50 was 0.837 µM in [1]; 1.05 µM in assay [2]; 1.35 µM in assay [3]; 0.799 µM in assay [4]; 0.54 µM in [5]; 2.02 µM in assay [6]. The GI50 was 1.14 µM in assay [7], 1.41 µM in [8], 0.849 µM in [9] and 0.872 µM in assay [10]. The TGI in [1] amounted to 2.64 µM; in assay [2], 10 µM; in assay [3], 6.5 µM; in assay [4], 7.32 µM; in assay [5], 2.68 µM; in [6], 9.18 µM. Also, the TGI in assay [7] was found to be 4.18 µM; in [8], 8.22 µM; in [9], 2.4 µM; in [10], 4.9 µM.
As for `C=C1C(=O)O[C@@H]2C[C@@H]1CC[C@@]1(C)O[C@@H]1CC[C@@]1(C)O[C@@H]1CC[C@@]2(C)O`, the GI50 in assay [1] was 17.5 µM; in assay [2], greater than 100 µM; in [3], 14.1 µM; in assay [4] it was 15.3 µM; in assay [5], 14.4 µM; in [6], 4.21 µM. Also, the GI50 in assay [7] is 17.4 µM; in [8], 1.58 µM; in assay [9] it was 42.8 µM; in [10] it was 60.3 µM. For the same molecule, the TGI in assay [1] was 45.4 µM; in assay [2], greater than 100 µM; in assay [3], 42.2 µM; in assay [4] it was greater than 100 µM; in assay [5] it was 79.7 µM; in [6], 21.1 µM. Besides, the TGI was 34.8 µM in [7], 3.14 µM in assay [8], greater than 100 µM in assay [9] and greater than 100 µM in [10].
Take `COc1cc([C@@H]2c3cc4c(cc3[C@@H](O[C@@H]3O[C@@H]5CO[C@@H](c6cccs6)O[C@H]5[C@H](O)[C@H]3O)[C@H]3COC(=O)[C@H]23)OCO4)cc(OC)c1O`: the GI50 in assay [1] was 0.208 µM; in [2] it was 0.411 µM; in assay [3], 0.175 µM; in [4], 1.78 µM; in assay [6], 0.385 µM; in assay [7], 0.44 µM. For the same molecule, the GI50 is 0.179 µM in [8], 0.409 µM in assay [9] and 0.023 µM in assay [10]. Also, the TGI is 1.4 µM in assay [1]; greater than 100 µM in assay [2]; greater than 46.1 µM in assay [3]; 14.7 µM in assay [4]; 6.48 µM in assay [5]; 2.02 µM in assay [6]. Moreover, the TGI in assay [7] stood at 2.9 µM; in assay [8] it was 2.6 µM; in assay [9] it was 3.41 µM; in assay [10], 2.09 µM.
For the molecule `CC(=O)OC1CCC2(C)C(=CCC3C2CCC2(C)C(C(C)C(=O)O)CCC32)C1` (centres undefined), the TGI in assay [1], in assay [2], in [3], in [4], in [5] and in assay [6] was greater than 100 µM throughout. Besides, the TGI in assay [7], in [8], in assay [9] and in assay [10] was greater than 100 µM each time.
For `NCC1OC(OC2C(CO)OC(OC3C(O)C(N)CC(N)C3OC3OC(CO)C(O)C(O)C3N)C2O)C(N)C(O)C1O` (centres undefined), the GI50 in assay [1], in assay [2], in assay [3], in [4], in assay [5] and in assay [6] was greater than 50 µg/mL each time. In addition, the GI50 in [7], in [8], in [9] and in [10] was greater than 50 µg/mL each time. Also, the TGI in assay [1], in assay [2], in assay [3], in assay [4], in [5] and in assay [6] was greater than 50 µg/mL in each case. Also, the TGI in assay [7], in [8], in assay [9] and in assay [10] was greater than 50 µg/mL throughout.
Take `C=C1CCC2C3(C)COC(c4ccc(SC)cc4)OC3CCC2(C)C1C/C=C1/C(=O)OCC1O` (centres undefined): the GI50 is 1.92 µM in assay [1]; 2.66 µM in assay [2]; 1.93 µM in assay [3]; 9.73 µM in assay [4]; 2.64 µM in [5]; 11.9 µM in assay [6]. In addition, the GI50 is 8.67 µM in [7], 4.48 µM in assay [8], 4.51 µM in assay [9] and 8.78 µM in assay [10]. Moreover, the TGI turned out to be 5.98 µM in [1]; 12.2 µM in assay [2]; 3.66 µM in assay [3]; 21.9 µM in assay [4]; 15.1 µM in assay [5]; 24.9 µM in [6]. The TGI in assay [7] stood at 21.1 µM; in assay [8] it was 17.4 µM; in assay [9], 15.6 µM; in assay [10], 22.3 µM.
Take `CC(C)c1cccc(C(C)C)c1NC(=O)C(=O)C(C(=O)c1ccc2ccccc2c1)C1OC(=O)c2ccccc21` (centres undefined): the TGI in assay [1], in assay [2], in assay [3], in assay [4], in assay [5] and in [6] was greater than 100 µM in each case. Moreover, the TGI in assay [7], in assay [8], in [9] and in assay [10] was greater than 100 µM in each case.
For `CC(=O)OC(C)(C)N=Nc1ccc(Br)cc1`, the TGI in assay [1] was 33.8 µM; in [2], 21.4 µM; in assay [3], greater than 100 µM; in [4], 15.9 µM; in [5] it was 36.2 µM; in assay [6] it was greater than 100 µM. The TGI in assay [7] was greater than 100 µM; in [8] it was greater than 100 µM; in assay [9] it was greater than 60.4 µM; in assay [10], 26 µM.
`COc1cc(C2CC(c3cc(C)ccc3C)=NN2c2ccc(S(=O)(=O)NC(=O)NCc3ccccc3)cc2)cc(OC)c1OC` (centres undefined): the GI50 in [1] is 3.55 µM; in assay [2], 4 µM; in assay [3], 3.62 µM; in assay [4], 3.56 µM; in assay [5], 2.8 µM; in assay [6], 2.63 µM. Moreover, the GI50 is 2.26 µM in [7], 3.37 µM in assay [8], 2.9 µM in assay [9] and 2.54 µM in [10]. Further, the TGI is 21.6 µM in assay [1]; 34.1 µM in assay [2]; greater than 100 µM in [3]; 15.6 µM in assay [4]; 9.11 µM in assay [5]; 6.47 µM in [6]. The TGI in assay [7] came to 5.5 µM; in [8] it was 19.5 µM; in [9] it was 8.17 µM; in assay [10] it was 6.48 µM.
Consider `CC(=O)OC[C@]12CC[C@@H]([C@@H](C)C(N)=O)[C@@H]1[C@H]1CC[C@@H]3[C@@]4(C)CC[C@H](OC(C)=O)C(C)(C)[C@@H]4CC[C@@]3(C)[C@]1(C)CC2`, for which the GI50 was 4.94 µM in [1]; 4.09 µM in assay [2]; 7.69 µM in assay [3]; 7.57 µM in assay [4]; 2.63 µM in [5]; 10.4 µM in [6]. The GI50 in assay [7] is 12 µM; in assay [8] it was 9.42 µM; in assay [9], 4.28 µM; in assay [10], 13.4 µM. Moreover, the TGI in [1] is 20.7 µM; in assay [2], 35.7 µM; in [3], 24.2 µM; in [4] it was 21.1 µM; in [5], 12.4 µM; in [6] it was 26.1 µM. In addition, the TGI in assay [7] was 27.3 µM; in assay [8] it was 33.6 µM; in [9], 16.3 µM; in assay [10], 30.9 µM.

(Values after PubChem BioAssay (NCI).)
